# Data reported in paper PMC10257182, “Discovery of senolytics using machine learning” (Nature Communications, 2023).
# Values joined by “and” are separate entries in the source; they are usually repeats but may differ in a detail not shown here. Identical values can stand only once.
# Experiments:
# Assay type in all cases: cell-based, human
# [1] = tested on: IMR90 cells at passage 27 (replicative senescence); assay: Cell survival assay using crystal violet staining, replicative senescence; set-up: % Cell Survival: concentration or dose not given beside the values; conditions: FIG 4C; Replicative Senescence (RS) cells; individual replicate values, Control DMSO = 100
# Description: IMR90 (CCL-186) human foetal lung fibroblasts and A549 (CCL-185) human lung adenocarcinoma cells were obtained from the American Type Culture Collection (ATCC, Manassas, VA). The cell lines were confirmed to be mycoplasma negative (Lonza MycoAlert, cat #LT07-118). IMR90 ER:RAS is a derivative of IMR90 cells expressing a switchable version of oncogenic H-Ras[84]. IMR90 ER:RAS and A549 cells were maintained in Dulbecco’s Modified Eagle Medium (DMEM, ThermoFisher) supplemented with foetal bovine serum (10%), L-glutamine (2 mM, ThermoFisher), and antibiotic-antimycotic solution (1%, ThermoFisher) and incubated under standard tissue culture conditions (37 °C and 5% CO2). For induction of the senescent phenotype, IMR90-ER:RAS cells were cultured in hydroxytamoxifen (4-OHT) (Sigma) added media at 100 nM final concentration. IMR90 were kept in culture for over 27 passages for replicative senescence. Cells were tested for mycoplasma on a regular basis.
# Equal numbers of control and senescent cells were plated at high density on multiwell plates just before senolytic treatment addition. After treatment, cells were fixed on 0.5% glutaraldehyde (Sigma) and then dried at RT overnight. Then, wells were stained with crystal violet solution for 3 h, washed and dried. Once they were completely dry, the plates were scanned for records. Quantification was performed extracting the staining with 1% acetic acid and measuring the final solution by absorbance at 595 nm.
# [2] = tested on: A549 cells treated with 100 μM etoposide; assay: Cell survival assay using crystal violet staining, TIS, senescent cells; conditions: Etoposide-treated (senescent) cells; Control DMSO = 100; single replicates (SUP FIG 9E)
# Protocol: Equal numbers of control and senescent cells were plated at high density on multiwell plates just before senolytic treatment addition. After treatment, cells were fixed on 0.5% glutaraldehyde (Sigma) and then dried at RT overnight. Then, wells were stained with crystal violet solution for 3 h, washed and dried. Once they were completely dry, the plates were scanned for records. Quantification was performed extracting the staining with 1% acetic acid and measuring the final solution by absorbance at 595 nm. […]
# cells per condition is indicated. (d) Cell survival assay measuring the senolytic effect in lung cancer senescent cells. The panels show a representative crystal violet staining of tissue culture dishes of confluent A549 cells treated with 100 μM etoposide and control A549 cells, all treated with 10 nM oleandrin, ouabain and periplocin, and DMSO as vehicle control for 72 hours as indicated. (e) Graph representing the cell survival by quantification of the crystal violet staining of the experiment described in (d), as described in Methods. Data represented as individual datapoints, and bars and error bars representing the mean ± SEM of 14 independent experiments. Statistical analysis was performed using a one-way ANOVA (Tukey’s test) for multiple comparisons. […]
# Scale bars represent 100 μm. ns = not significant, * = p < 0.05, ** = p < 0.01, *** = p < 0.001, **** = p < 0.0001. Source data are provided as a Source Data file.
# [3] = tested on: senescent IMR90 ER:RAS cells (4-OHT-induced); assay: Nuclei count (Hoechst, high content imaging) senolytic assay, oncogene-induced senescence (OIS) model, senescent cells; conditions: for Mean % Cell Survival: Senescent, mean n=3 (Fig 3C); for % Cell Survival: senescence
# Summary of the method: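 Senescence in IMR90 ER:RAS fibroblasts induced with 100 nM 4-OHT; non-senescent and senescent cells treated 72 h with compounds, 10-point […] range 10 μM–10 nM, triplicate. Cells fixed, permeabilised, Hoechst-stained; total nuclei per well counted by high-content imaging versus untreated controls as cell-death readout.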
smiles,measurement,setting,value
"CO[C@H]1C[C@H](O[C@H]2CC[C@]3(C)[C@H]4CC[C@]5(C)[C@@H](C6=CC(=O)OC6)CC[C@]5(O)[C@@H]4CC[C@]3(O)C2)O[C@H](C)[C@H]1O[C@@H]1O[C@H](CO)[C@@H](O)[C@H](O)[C@H]1O [Periplocin, periplocin]",% Cell Survival,[1],127.6% and 99.2% and 95.4% and 100.9% and 115.7% and 129.6% and 84.9% and 94.7% and 133.6% and 88.7% and 125.7% and 118.8%
same,% Cell Survival,[2],78.5% and 85.2% and 87.1% and 66.7% and 80.4% and 88.8% and 86.5% and 120% and 114.9% and 68.8% and 88.3% and 87.7% and 111.9% and 81.2%
same,dose showing the clearest / optimal senolytic effect,"[3]; OIS IMR90 ER:RAS, Hoechst nuclei count, marginal effect on normal cells",46.4 nM
same,IC50,"[3]; OIS model, 4-OHT-induced IMR90 ER:RAS, nuclei count, 72 h",24 nM
same,Mean % Cell Survival,"[3]; log (dose) [M] -5, 72 h",3.183%
same,Mean % Cell Survival,"[3]; log (dose) [M] -5.33, 72 h",6.126%
same,Mean % Cell Survival,"[3]; log (dose) [M] -5.66, 72 h",4.43%
same,Mean % Cell Survival,"[3]; log (dose) [M] -6, 72 h",4.805%
same,Mean % Cell Survival,"[3]; log (dose) [M] -6.33, 72 h",5.142%
same,Mean % Cell Survival,"[3]; log (dose) [M] -6.66, 72 h",5.675%
same,Mean % Cell Survival,"[3]; log (dose) [M] -7, 72 h",6.834%
same,Mean % Cell Survival,"[3]; log (dose) [M] -7.33, 72 h",16.5597%
same,Mean % Cell Survival,"[3]; log (dose) [M] -7.66, 72 h",54.5059%
same,Mean % Cell Survival,"[3]; log (dose) [M] -8, 72 h",96.9401%
same,senolytic activity (in words),"[3]; experimental screen, OIS IMR90 ER:RAS",clear senolytic action
same,senolytic index (SI),"[3]; ratio between the IC50 of control cells and the IC50 of senescent cells, OIS IMR90 ER:RAS",12.3
same,% Cell Survival,"[3]; log (dose) [M] -5, individual replicates (Fig 3D)",3.074% and 3.321% and 3.154%
same,% Cell Survival,"[3]; log (dose) [M] -5.33, individual replicates (Fig 3D)",5.0494% and 9.706% and 3.6215%
same,% Cell Survival,"[3]; log (dose) [M] -5.66, individual replicates (Fig 3D)",4.72% and 4.5977% and 3.972%
same,% Cell Survival,"[3]; log (dose) [M] -6, individual replicates (Fig 3D)",4.061% and 4.981% and 5.374%
same,% Cell Survival,"[3]; log (dose) [M] -6.33, individual replicates (Fig 3D)",6.147% and 3.321% and 5.958%
same,% Cell Survival,"[3]; log (dose) [M] -6.66, individual replicates (Fig 3D)",4.501% and 7.152% and 5.374%
same,% Cell Survival,"[3]; log (dose) [M] -7, individual replicates (Fig 3D)",5.818% and 7.791% and 6.893%
same,% Cell Survival,"[3]; log (dose) [M] -7.33, individual replicates (Fig 3D)",17.8924% and 15.198% and 16.5888%
same,% Cell Survival,"[3]; log (dose) [M] -7.66, individual replicates (Fig 3D)",42.1515% and 64.2401% and 57.1262%
same,% Cell Survival,"[3]; log (dose) [M] -8, individual replicates (Fig 3D)",93.8529% and 97.318% and 99.6495%
